Biological target: T1, OCT1 (SLC22A1) (Homo sapiens, UniProt O15245)
T1 sequence (O15245 whole entry): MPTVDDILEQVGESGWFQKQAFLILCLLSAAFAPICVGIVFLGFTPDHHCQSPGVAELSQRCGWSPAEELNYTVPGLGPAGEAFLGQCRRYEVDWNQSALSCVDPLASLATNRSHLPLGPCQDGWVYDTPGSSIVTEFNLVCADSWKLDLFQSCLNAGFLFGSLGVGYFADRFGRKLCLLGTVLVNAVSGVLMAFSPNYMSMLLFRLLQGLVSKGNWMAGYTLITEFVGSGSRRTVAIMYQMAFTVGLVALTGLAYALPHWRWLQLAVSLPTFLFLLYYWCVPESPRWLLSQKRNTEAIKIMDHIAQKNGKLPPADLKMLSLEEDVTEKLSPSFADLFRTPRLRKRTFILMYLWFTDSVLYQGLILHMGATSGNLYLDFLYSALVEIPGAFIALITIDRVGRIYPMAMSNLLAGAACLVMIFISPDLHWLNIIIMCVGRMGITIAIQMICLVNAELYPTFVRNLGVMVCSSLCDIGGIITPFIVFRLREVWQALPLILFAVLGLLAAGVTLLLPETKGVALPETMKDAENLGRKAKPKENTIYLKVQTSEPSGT
Experiment: in vitro

[1] = HEK293 cells that express human OCT1, probe 4-(4-(dimethylamino)styryl)-N-methylpyridinium

SMILES | inhibition at 100 µM [1] [%] | inhibition at 100 µM (hek293) [%]
CCOc1nc2cccc(C(=O)O)c2n1Cc1ccc(-c2ccccc2-c2nnn[nH]2)cc1 | 6.3 | 
CC1=C(CC(=O)O)c2cc(F)ccc2/C1=C\c1ccc([S+](C)[O-])cc1 (stereo not given) | 27.1 | 
CC(C)NC[C@H](O)c1ccc(O)c(O)c1 | 15.6 | 
N=C(N)c1ccc(CNC(=O)[C@@H]2CCN2C(=O)[C@H](NCC(=O)O)C2CCCCC2)cc1 | -0.2 | 
CC(C)[N+]1(C)[C@@H]2CC[C@H]1C[C@@H](OC(=O)C(CO)c1ccccc1)C2 (stereo not given in full) | 43.4 | 
CC(C)(C)NC(=O)[C@@H]1CN(Cc2cccnc2)CCN1C[C@@H](O)C[C@@H](Cc1ccccc1)C(=O)N[C@H]1c2ccccc2C[C@H]1O | 43 | 
CCOC(=O)[C@H](CCc1ccccc1)N[C@@H](C)C(=O)N1CCC[C@H]1C(=O)O | 14.6 | 
COc1ccc(CCN(C)CCCC(C#N)(c2ccc(OC)c(OC)c2)C(C)C)cc1OC (stereo not given) | 86.4 | 
COc1ccc(CCN(C)CCCC(C#N)(c2cc(OC)c(OC)c(OC)c2)C(C)C)cc1OC (racemic) [METHOXYVERAPAMIL] | 78.1 | 
COc1cc(C(O)CN)ccc1O (racemic) [NORMETANEPHRINE] | -2.4 | 
COc1cc2c(cc1O)CC[C@@H]1[C@@H]2CC[C@]2(C)[C@@H](O)CC[C@@H]12 [2-METHOXYESTRADIOL] | 74.3 | 
C[C@H]1O[C@H](O[C@H]2[C@H](O)[C@@H](O)[C@@H](O[C@H]3[C@H](O)[C@@H](O)C(O)O[C@@H]3CO)O[C@@H]2CO)[C@H](O)[C@@H](O)[C@@H]1N[C@H]1C=C(CO)[C@@H](O)[C@H](O)[C@H]1O (stereo not given in full) [ACARBOSE] | 3.9 | 
CCCC(=O)Nc1ccc(OCC(O)CNC(C)C)c(C(C)=O)c1 (stereo not given) [ACEBUTOLOL] | 40.9 | 
CCN(CC)CCNC(=O)c1ccc(NC(C)=O)cc1 [ACECAINIDE] | 13.7 | 
CC(=O)Nc1ccc(O)cc1 [ACETAMINOPHEN] | -9.2 | 
CC(=O)N[C@@H](CS)C(=O)O [ACETYLCYSTEINE] | 15.5 | 
Nc1nc2c(ncn2COCCO)c(=O)[nH]1 [ACYCLOVIR] | -3.9 | 
N=C(N)NCCCCN [AGMATINE] | 2.1 | 
Oc1ncnc2[nH]ncc12 [ALLOPURINOL] | 7.7 | 
CC1(C)S[C@@H]2[C@H](NC(=O)[C@H](N)c3ccccc3)C(=O)N2[C@H]1C(=O)O [AMPICILLIN] | 20.3 | 
C[C@]12CCC(=O)C=C1CC[C@@H]1[C@@H]2CC[C@]2(C)C(=O)CC[C@@H]12 [ANDROSTENEDIONE] | 65.1 | 
Cc1cc(=O)n(-c2ccccc2)n1C [ANTIPYRINE] | 20.7 | 
NC(N)=NCCCCN=C(N)N [ARCAINE] | 4.5 | 
CC(=O)Oc1ccccc1C(=O)O [ASPIRIN] | -5.7 | 

SMILES | inhibition at 100 µM [1] [%] | inhibition at 100 µM (hek293) [%]
CN1[C@@H]2CC[C@H]1C[C@@H](OC(=O)C(CO)c1ccccc1)C2 (stereo not given in full) [ATROPINE] | 76.5 | 
Cn1cnc([N+](=O)[O-])c1Sc1ncnc2nc[nH]c12 [AZATHIOPRINE] |  | 4.2
NCC(CC(=O)O)c1ccc(Cl)cc1 (stereo not given) [BACLOFEN] | 20.7 | 
CCCC1O[C@@H]2C[C@H]3[C@@H]4CCC5=CC(=O)C=C[C@]5(C)[C@H]4[C@@H](O)C[C@]3(C)[C@]2(C(=O)CO)O1 (stereo not given in full) [BUDESONIDE] | 38.2 | 
O=C1CC2(CCCC2)CC(=O)N1CCCCN1CCN(c2ncccn2)CC1 [BUSPIRONE] | 24.7 | 
Cn1c(=O)c2c(ncn2C)n(C)c1=O [CAFFEINE] | -1.4 | 
C[C@H](CS)C(=O)N1CCC[C@H]1C(=O)O [CAPTOPRIL] | 0.3 | 
NC(=O)N1c2ccccc2C=Cc2ccccc21 [CARBAMAZEPINE] | 8.4 | 
CCCC(C)(COC(N)=O)COC(=O)NC(C)C (stereo not given) [CARISOPRODOL] | 19.8 | 
Cc1ccc(-c2cc(C(F)(F)F)nn2-c2ccc(S(N)(=O)=O)cc2)cc1 [CELECOXIB] | 7.7 | 
CC1=C(C(=O)O)N2C(=O)[C@@H](NC(=O)[C@H](N)c3ccccc3)[C@H]2SC1 [CEPHALEXIN ANHYDROUS] | -1.9 | 
O=C(O)COCCN1CCN(C(c2ccccc2)c2ccc(Cl)cc2)CC1 (stereo not given) [CETIRIZINE] | -4.8 | 
O=C(N[C@H](CO)[C@H](O)c1ccc([N+](=O)[O-])cc1)C(Cl)Cl [CHLORAMPHENICOL] | 1.4 | 
CCN(CC)CCCC(C)Nc1ccnc2cc(Cl)ccc12 (stereo not given) [CHLOROQUINE] | 46 | 
C[N+](C)(C)CCO [CHOLINE] |  | 21.3
CN/C(=N/CCSCc1nc[nH]c1C)NC#N [CIMETIDINE] |  | 8.1
CCC[C@@H]1C[C@@H](C(=O)N[C@@H]([C@H]2O[C@H](SC)[C@H](O)[C@@H](O)[C@H]2O)[C@H](C)Cl)N(C)C1 [CLINDAMYCIN] | 19.5 | 
O=P(O)(O)C(Cl)(Cl)P(=O)(O)O [CLODRONIC ACID] | 5.6 | 
Clc1ccccc1C(c1ccccc1)(c1ccccc1)n1ccnc1 [CLOTRIMAZOLE] | 69.3 | 
CN1CCN(C2=Nc3cc(Cl)ccc3Nc3ccccc32)CC1 [CLOZAPINE] | 47.5 | 
COc1ccc2c3c1O[C@H]1[C@@H](O)C=C[C@H]4[C@@H](C2)N(C)CC[C@@]341 [CODEINE] | 39.1 | 
COc1cc2c(c(OC)c1OC)-c1ccc(OC)c(=O)cc1[C@@H](NC(C)=O)CC2 [COLCHICINE] | 31.9 | 
C[C@]12C[C@H](O)[C@H]3[C@@H](CCC4=CC(=O)CC[C@@]43C)[C@@H]1CC[C@@H]2C(=O)CO [CORTICOSTERONE] | 33.5 | 
CN1CC(=O)NC1=N [CREATININE] | 13.3 | 

SMILES | inhibition at 100 µM [1] [%] | inhibition at 100 µM (hek293) [%]
O=P1(N(CCCl)CCCl)NCCCO1 (stereo not given) [CYCLOPHOSPHAMIDE ANHYDROUS] |  | 4.7
CC(=O)[C@@]1(O)CC[C@H]2[C@@H]3C=C(Cl)C4=CC(=O)[C@@H]5C[C@@H]5[C@]4(C)[C@H]3CC[C@@]21C [CYPROTERONE] | 61.6 | 
NCCS [CYSTEAMINE] | 2.4 | 
CN1C(=O)CN=C(c2ccccc2)c2cc(Cl)ccc21 [DIAZEPAM] | 5 | 
O=C(O)Cc1ccccc1Nc1c(Cl)cccc1Cl [DICLOFENAC] | -3.7 | 
CC(C)N(CCC(C(N)=O)(c1ccccc1)c1ccccn1)C(C)C (stereo not given) [DISOPYRAMIDE] |  | 68.8
NCCc1ccc(O)c(O)c1 [DOPAMINE] |  | 11.8
COc1cc2nc(N3CCN(C(=O)C4COc5ccccc5O4)CC3)nc(N)c2cc1OC (stereo not given) [DOXAZOSIN] | 85.6 | 
C[C@H]1c2cccc(O)c2C(=O)C2=C(O)[C@]3(O)C(=O)C(C(N)=O)=C(O)[C@@H](N(C)C)[C@@H]3[C@@H](O)[C@@H]21 [DOXYCYCLINE] | 27.4 | 
O=C1Nc2ccc(Cl)cc2[C@@](C#CC2CC2)(C(F)(F)F)O1 [EFAVIRENZ] | 37 | 
NCCCC(N)(C(=O)O)C(F)F (stereo not given) [EFLORNITHINE] | 5.5 | 
CNC[C@H](O)c1ccc(O)c(O)c1 [EPINEPHRINE] |  | 29.1
CN1C[C@H](C(=O)N[C@]2(C)O[C@@]3(O)[C@@H]4CCCN4C(=O)[C@H](Cc4ccccc4)N3C2=O)C=C2c3cccc4[nH]cc(c34)C[C@H]21 [ERGOTAMINE] | 16.7 | 
CC[C@H]1OC(=O)[C@H](C)[C@@H](O[C@H]2C[C@@](C)(OC)[C@@H](O)[C@H](C)O2)[C@H](C)[C@@H](O[C@@H]2O[C@H](C)C[C@H](N(C)C)[C@H]2O)[C@](C)(O)C[C@@H](C)C(=O)[C@H](C)[C@@H](O)[C@]1(C)O [ERYTHROMYCIN] | 14 | 
COC(=O)CCc1ccc(OCC(O)CNC(C)C)cc1 (stereo not given) [ESMOLOL] | 31.2 | 
C[C@]12CC[C@@H]3c4ccc(O)cc4CC[C@H]3[C@@H]1CC[C@@H]2O [ESTRADIOL] | 83.5 | 
COc1cc([C@@H]2c3cc4c(cc3[C@@H](O[C@@H]3O[C@@H]5CO[C@@H](C)O[C@H]5[C@H](O)[C@H]3O)[C@H]3COC(=O)[C@H]23)OCO4)cc(OC)c1O [ETOPOSIDE] | 7.5 | 
NC(N)=Nc1nc(CSCCC(N)=NS(N)(=O)=O)cs1 [FAMOTIDINE] |  | 13.9
CCOC(=O)C1=C(C)NC(C)=C(C(=O)OC)C1c1cccc(Cl)c1Cl (stereo not given) [FELODIPINE] | 15.5 | 
CC(C)OC(=O)C(C)(C)Oc1ccc(C(=O)c2ccc(Cl)cc2)cc1 [FENOFIBRATE] | 0.2 | 
O=c1[nH]cc(F)c(=O)[nH]1 [FLUOROURACIL] | 0.9 | 
CC(C)C(=O)Nc1ccc([N+](=O)[O-])c(C(F)(F)F)c1 [FLUTAMIDE] | 34.1 | 

Source: ChEMBL document CHEMBL1140113, “Structural requirements for drug inhibition of the liver specific human organic cation transport protein 1” (J Med Chem, 2008)
